Source: US20070043024A1, “Azacyclic compounds as inhibitors of sensory neurone specific channels” (priority 2003, published 2007)

Target: T1, human Nav1.8 (hNav1.8) ion channel (Homo sapiens, UniProt Q9Y5Y9)
T1 construct: expressed in transfected cells
Test: Inhibition of human Nav1.8 stably expressed in SH-SY-5Y cells (membrane potential dye fluorescence assay)
Type: cell-based
Details: Table 1; SH-SY-5Y hNav1.8 cells, inhibition of membrane depolarisation, FLIPR membrane potential dye, 250 nM TTX, test concentration range 100 μM-0.05 μM; read-out: IC50

T1 sequence (Q9Y5Y9 whole entry): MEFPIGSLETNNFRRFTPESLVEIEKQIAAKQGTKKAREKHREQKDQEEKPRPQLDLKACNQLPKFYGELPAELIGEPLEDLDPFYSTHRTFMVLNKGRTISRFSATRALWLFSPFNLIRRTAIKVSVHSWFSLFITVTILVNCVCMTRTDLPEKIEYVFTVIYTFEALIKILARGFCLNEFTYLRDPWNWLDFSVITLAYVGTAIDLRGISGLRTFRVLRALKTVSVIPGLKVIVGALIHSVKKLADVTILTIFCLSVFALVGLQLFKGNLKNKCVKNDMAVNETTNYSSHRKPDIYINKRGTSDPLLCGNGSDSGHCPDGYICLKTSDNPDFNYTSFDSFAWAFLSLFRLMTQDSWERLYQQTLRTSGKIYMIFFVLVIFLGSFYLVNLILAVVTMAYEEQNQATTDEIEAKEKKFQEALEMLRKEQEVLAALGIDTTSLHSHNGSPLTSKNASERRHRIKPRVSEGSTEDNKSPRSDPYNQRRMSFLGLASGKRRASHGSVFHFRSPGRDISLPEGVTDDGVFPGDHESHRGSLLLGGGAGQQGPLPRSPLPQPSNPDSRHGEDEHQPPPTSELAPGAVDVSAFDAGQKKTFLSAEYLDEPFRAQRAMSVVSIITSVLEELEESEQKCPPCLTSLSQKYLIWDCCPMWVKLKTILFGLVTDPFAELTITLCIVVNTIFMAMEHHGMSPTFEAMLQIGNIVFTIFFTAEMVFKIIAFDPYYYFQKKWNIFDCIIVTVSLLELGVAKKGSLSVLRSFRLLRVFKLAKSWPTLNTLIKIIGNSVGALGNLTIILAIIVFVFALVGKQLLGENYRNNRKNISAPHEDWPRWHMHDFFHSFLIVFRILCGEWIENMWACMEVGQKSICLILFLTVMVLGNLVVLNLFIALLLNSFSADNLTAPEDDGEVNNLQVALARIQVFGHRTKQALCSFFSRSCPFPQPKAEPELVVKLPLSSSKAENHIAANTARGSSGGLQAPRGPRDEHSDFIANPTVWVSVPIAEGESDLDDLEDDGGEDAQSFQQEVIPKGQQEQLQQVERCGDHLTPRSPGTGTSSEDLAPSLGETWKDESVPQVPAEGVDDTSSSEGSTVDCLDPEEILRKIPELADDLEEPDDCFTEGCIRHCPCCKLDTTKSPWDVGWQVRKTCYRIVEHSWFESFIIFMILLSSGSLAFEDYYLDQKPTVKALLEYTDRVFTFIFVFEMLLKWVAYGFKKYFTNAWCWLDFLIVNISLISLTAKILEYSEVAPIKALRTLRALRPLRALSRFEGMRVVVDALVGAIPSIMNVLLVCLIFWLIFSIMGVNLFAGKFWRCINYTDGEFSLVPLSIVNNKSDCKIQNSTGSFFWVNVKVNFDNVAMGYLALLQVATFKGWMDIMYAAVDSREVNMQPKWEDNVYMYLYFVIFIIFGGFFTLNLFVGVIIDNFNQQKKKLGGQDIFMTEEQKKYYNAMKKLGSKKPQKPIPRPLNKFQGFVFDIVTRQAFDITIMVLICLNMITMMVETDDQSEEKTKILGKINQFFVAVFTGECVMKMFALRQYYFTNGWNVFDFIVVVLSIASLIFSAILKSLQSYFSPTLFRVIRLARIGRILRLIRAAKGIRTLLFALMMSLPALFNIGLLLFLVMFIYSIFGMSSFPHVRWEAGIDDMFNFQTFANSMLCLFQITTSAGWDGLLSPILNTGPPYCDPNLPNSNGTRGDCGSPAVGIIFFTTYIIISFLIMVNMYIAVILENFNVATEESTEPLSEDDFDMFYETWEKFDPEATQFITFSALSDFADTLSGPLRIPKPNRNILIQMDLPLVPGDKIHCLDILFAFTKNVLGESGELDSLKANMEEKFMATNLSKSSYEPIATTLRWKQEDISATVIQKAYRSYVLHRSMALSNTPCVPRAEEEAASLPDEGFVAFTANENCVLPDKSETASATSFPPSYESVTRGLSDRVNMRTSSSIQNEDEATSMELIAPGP

Compound	IC50
COc1cccc2c1CN(CC(=O)NCC(c1ccccc1)c1ccccc1)CC2 [Example 61, N-(2,2-Diphenyl-ethyl)-2-(8-methoxy-3,4-dihydro-1H-isoquinolin-2-yl)-acetamide]	2560 nM
COc1cccc2c1CN(CC(=O)N1CCN(C(c3ccccc3)c3ccccc3)CC1)CC2 [Example 62, 1-(4-benzhydryl-piperazin-1-yl)-2-(8-methoxy-3,4-dihydro-1H-isoquinolin-2-yl)-ethanone]	5630 nM
COc1cccc2c1CN(CC(=O)N1CCN(C(c3ccc(F)cc3)c3ccc(F)cc3)CC1)CC2 [Example 63, 1-{4-[Bis-(4-fluoro-phenyl)-methyl]-piperazin-1-yl}-2-(8-methoxy-3,4-dihydro-1H-isoquinolin-2-yl)-ethanone]	15800 nM
O=C(CN1CCc2ccccc2C1)N1CCN(C(c2ccccc2)c2ccccc2)CC1 [Example 64, 1-(4-Benzhydryl-piperazin-1-yl)-2-(3,4-dihydro-1H-isoquinolin-2-yl)-ethanone]	3140 nM
O=C(CN1CCc2ccccc2C1)N1CCN(C(c2ccc(F)cc2)c2ccc(F)cc2)CC1 [Example 65, 1-{4-[Bis-(4-fluoro-phenyl)-methyl]-piperazin-1-yl}-2-(3,4-dihydro-1H-isoquinolin-2-yl)-ethanone]	5640 nM
O=C(CN1Cc2ccccc2C1)NCC(c1ccccc1)c1ccccc1 [Example 66]	2050 nM
O=C(CN1Cc2ccccc2C1)N1CCN(C(c2ccccc2)c2ccccc2)CC1 [Example 67, 1-(4-Benzhydryl-piperazin-1-yl)-2-(1,3-dihydro-isoindol-2-yl)-ethanone]	2350 nM
O=C(CN1Cc2ccccc2C1)N1CCN(C(c2ccc(F)cc2)c2ccc(F)cc2)CC1 [Example 68, 1-{4-[Bis-(4-fluoro-phenyl)-methyl]-piperazin-1-yl}-2-(1,3-dihydro-isoindol-2-yl)-ethanone]	1950 nM
COc1cccc2c1CN(CC(=O)NC(c1ccccc1)c1ccccn1)CC2 (stereo not drawn) [Example 69, 2-(8-methoxy-3,4-dihydro-1H-isoquinolin-2-yl)-N-(phenyl-pyridin-2-yl-methyl)-acetamide]	8960 nM
O=C(CN1CCc2cccc(O)c2C1)N1c2ccccc2OCC1c1ccccc1 (stereo not drawn) [Example 70, 2-(8-Hydroxy-3,4-dihydro-1H-isoquinolin-2-yl)-1-(3-phenyl-2,3-dihydro-benzo[1,4]oxazin-4-yl)-ethanone]	2140 nM
COc1cccc2c1CN(C(C)C(=O)NCCC(c1ccccc1)c1ccccc1)CC2 (stereo not drawn) [Example 77, N-(3,3-Diphenyl-propyl)-2-(8-methoxy-3,4-dihydro-1H-isoquinolin-2-yl)-propionamide]	660 nM
COc1ccc2c(c1)CN(CC(=O)NCCC(c1ccccc1)c1ccccc1)CC2 [Example 86, N-(3,3-Diphenyl-propyl)-2-(7-methoxy-3,4-dihydro-1H-isoquinolin-2-yl)-acetamide]	1460 nM
COc1ccc2c(c1)CN(CC(=O)N(Cc1ccccc1)Cc1ccccc1)CC2 [Example 87, N,N-Dibenzyl-2-(7-methoxy-3,4-dihydro-1H-isoquinolin-2-yl)-acetamide]	1100 nM
COc1ccc2c(c1)CN(CCN(Cc1ccccc1)Cc1ccccc1)CC2 [Example 88, Dibenzyl-[2-(7-methoxy-3,4-dihydro-1H-isoquinolin-2-yl)-ethyl]-amine]	580 nM
COc1ccc2c(c1)CN(CCNCCC(c1ccccc1)c1ccccc1)CC2 [Example 89, (3,3-Diphenyl-propyl)-[2-(7-methoxy-3,4-dihydro-1H-isoquinolin-2-yl)-ethyl]amine]	490 nM
Oc1cccc2c1CN(Cc1c(F)cccc1Cl)CC2 [Example 91, 2-(2-Chloro-6-fluoro-benzyl)-1,2,3,4-tetrahydro-isoquinolin-8-ol]	6910 nM
Oc1cccc2c1CN(Cc1cc(F)ccc1F)CC2 [Example 92, 2-(2,5-Difluoro-benzyl)-1,2,3,4-tetrahydro-isoquinolin-8-ol]	5270 nM
Oc1cccc2c1CN(Cc1cc(F)cc(F)c1)CC2 [Example 93, 2-(3,5-Difluoro-benzyl)-1,2,3,4-tetrahydro-isoquinolin-8-ol]	4720 nM
Oc1cccc2c1CN(Cc1ccc(SC(F)(F)F)cc1)CC2 [Example 94, 2-(4-Trifluoromethylsulfanyl-benzyl)-1,2,3,4-tetrahydro-isoquinolin-8-ol]	2170 nM
Oc1cccc2c1CN(Cc1cc(C(F)(F)F)cc(C(F)(F)F)c1)CC2 [Example 95, 2-(3,5-Bis-trifluoromethyl-benzyl)-1,2,3,4-tetrahydro-isoquinolin-8-ol]	1710 nM
Oc1cccc2c1CN(CCCC(c1ccc(F)cc1)c1ccc(F)cc1)CC2 [Example 96, 2-[4,4-Bis-(4-fluoro-phenyl)-butyl]-1,2,3,4-tetrahydro-isoquinolin-8-ol]	1940 nM
Cc1cc(C(C)(CCCN2CCc3cccc(O)c3C2)c2cc(C)c(O)c(C)c2)cc(C)c1O [Example 97, 2-[4,4-Bis-(4-hydroxy-3,5-dimethyl-phenyl)-pentyl]-1,2,3,4-tetrahydroisoquinolin-8-ol]	1060 nM
N-Benzhydryl-2-(8-methoxy-3,4-dihydro-1H-isoquinolin-2-yl)-N-phenyl-acetamide [Example 21]	1250 nM

Same assay, conditions: Table 2 (compound numbers of the list in the description); SH-SY-5Y hNav1.8 cells, inhibition of membrane depolarisation, FLIPR membrane potential dye, 250 nM TTX, test concentration range 100 μM-0.05 μM; read-out: IC50

Compound	IC50
O=C(CN1Cc2ccccc2C1)NCC(c1ccccc1)c1ccccc1 [Example 66]	2050 nM
